Assay results: patent US20230210853A1 (Halia Therapeutics, Inc., priority 2020, published 2023)

These compounds were tested against T1, full-length recombinant human NEK7 (Homo sapiens, UniProt Q8TDX7) (assay: NEK7 enzymatic assay ([33P]-ATP, casein substrate)). Conditions: Table 2d; recombinant human NEK7, casein substrate.
T1 construct: full-length recombinant human NEK7; GST (N); purchased SignalChem N09-10G; host or cells: Sf9 insect cells (baculovirus)
T1 sequence (Q8TDX7 whole entry): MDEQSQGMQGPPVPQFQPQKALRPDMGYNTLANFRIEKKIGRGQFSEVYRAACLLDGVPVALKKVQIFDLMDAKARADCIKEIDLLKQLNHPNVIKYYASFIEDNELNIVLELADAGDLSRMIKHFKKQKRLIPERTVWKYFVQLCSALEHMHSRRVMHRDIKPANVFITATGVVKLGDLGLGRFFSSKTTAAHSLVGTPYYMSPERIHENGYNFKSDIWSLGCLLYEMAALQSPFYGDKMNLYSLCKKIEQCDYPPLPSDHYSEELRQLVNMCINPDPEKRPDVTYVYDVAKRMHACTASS
Assay type: biochemical
How it was run: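 GST-tagged enzyme, baculovirus-expressed in Sf9 cells, was mixed with casein in 20 mM Hepes pH 7.5, 10 mM MgCl2, 1 mM EGTA, 0.02% Brij35, 2 mM DTT, 1% DMSO. Compounds (3-fold series, 10 μM–0.5 nM) were preincubated 20 min at RT, then [33P]-ATP was added for 2 h at RT. P81 filter-bound radioactivity was expressed as % of vehicle activity and fitted to IC50.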
For CN1CCN(Cc2ccc(NC(=O)Nc3ccc(-c4nn(C5CC5)c5ccnc(N)c45)cn3)cc2C(F)(F)F)CC1 [Id-50, 1-(5-(4-amino-1-cyclopropyl-1H-pyrazolo[4,3-c]pyridin-3-yl)pyridin-2-yl)-3-(4-((4-methylpiperazin-1-yl)methyl)-3-(trifluoromethyl)phenyl)urea], the IC50 was 301 to 500 nM.
CN1CCC(=Cc2ccc(NC(=O)Nc3ccc(-c4cn(C5CC5)c5ncnc(N)c45)cc3F)cc2C(F)(F)F)CC1 [Id-51, 1-(4-(4-amino-7-cyclopropyl-7H-pyrrolo[2,3-d]pyrimidin-5-yl)-2-fluorophenyl)-3-(4-((1-methylpiperidin-4-ylidene)methyl)-3-(trifluoromethyl)phenyl)urea] gave an IC50 of 501 to 1500 nM.
For COc1cc(CN2CCN(C)CC2)ccc1NC(=O)Nc1ccc(-c2cn(C3CC3)c3ncnc(N)c23)cc1F [Id-52, 1-(4-(4-amino-7-cyclopropyl-7H-pyrrolo[2,3-d]pyrimidin-5-yl)-2-fluorophenyl)-3-(2-methoxy-4-((4-methylpiperazin-1-yl)methyl)phenyl)urea], the IC50 was greater than 1500 nM.
With CN1CCN(Cc2ccc(NC(=O)Nc3ccc(-c4cn(C5CC5)c5ncnc(N)c45)cc3F)cc2C#N)CC1 [Id-53, 1-(4-(4-amino-7-cyclopropyl-7H-pyrrolo[2,3-d]pyrimidin-5-yl)-2-fluorophenyl)-3-(3-cyano-4-((4-methylpiperazin-1-yl)methyl)phenyl)urea] the IC50 was greater than 1500 nM.
CCN1CCN(Cc2ccc(NC(=O)Nc3ccc(-c4cn(C5CC5)c5ncnc(N)c45)cc3Cl)cc2C(F)(F)F)CC1 [Id-54, 1-(4-(4-amino-7-cyclopropyl-7H-pyrrolo[2,3-d]pyrimidin-5-yl)-2-chlorophenyl)-3-(4-((4-ethylpiperazin-1-yl)methyl)-3-(trifluoromethyl)phenyl)urea] gave an IC50 of less than 150 nM.
With Cc1cc(NC(=O)Nc2ccc(-c3nn(C4CC4)c4ccnc(N)c34)cc2F)ccc1N1CCOCC1 [Id-55, 1-(4-(4-amino-1-cyclopropyl-1H-pyrazolo[4,3-c]pyridin-3-yl)-2-fluorophenyl)-3-(3-methyl-4-morpholino-phenyl)urea] the IC50 was greater than 1500 nM.
CN1CCN(Cc2ccc(NC(=O)Nc3ccc(-c4cn(C5CC5)c5ncnc(N)c45)cc3F)cc2)CC1 [Id-56] showed an IC50 greater than 1500 nM.
Compound CCN1CCN(Cc2ccc(NC(=O)Nc3ccc(-c4cn(C5CC5)c5ncnc(N)c45)cc3F)cc2)CC1 [Id-57] has an IC50 greater than 1500 nM.
Compound CN1CCN(Cc2ccc(NC(=O)Nc3ccc(-c4cn(C5CC5)c5ncnc(N)c45)cc3F)cc2C(F)F)CC1 [Id-58] has an IC50 greater than 1500 nM.
With CCN1CCN(Cc2ccc(NC(=O)Nc3ccc(-c4cn(C5CC5)c5ncnc(N)c45)cc3F)cc2C(F)F)CC1 [Id-59] the IC50 was greater than 1500 nM.
CN1CCC(Oc2ncc(NC(=O)Nc3ccc(-c4cn(C5CC5)c5ncnc(N)c45)cc3F)cc2C(F)(F)F)CC1 [Id-60] gave an IC50 greater than 1500 nM.
In the case of Nc1ncnc2c1c(-c1ccc(NC(=O)Nc3ccc(CN4CCN(C5CC5)CC4)c(C(F)(F)F)c3)c(F)c1)cn2C1CC1 [Id-61], the IC50 is reported as 301 to 500 nM.
With CC(C)N1CCN(Cc2ccc(NC(=O)Nc3ccc(-c4cn(C5CC5)c5ncnc(N)c45)cc3F)cc2C(F)(F)F)CC1 [Id-62] the IC50 was less than 150 nM.
CN1CC2CC1CN2Cc1ccc(NC(=O)Nc2ccc(-c3cn(C4CC4)c4ncnc(N)c34)cc2F)cc1C(F)(F)F (stereo not drawn) [Id-63] was tested, and the IC50 was less than 150 nM.
Work on CN1CCN(Cc2ccc(NC(=O)Nc3ccc(-c4cn(C5CC5)c5ncnc(N)c45)cc3F)c(F)c2)CC1 [Id-64] yielded an IC50 of 501 to 1500 nM.
Nc1ncnc2c1c(-c1ccc(NC(=O)Nc3ccc(CN4CCNCC45CC5)c(C(F)(F)F)c3)c(F)c1)cn2C1CC1 [Id-65, 1-(4-((4,7-diazaspiro[2,5]octan-4-yl)methyl)-3-(trifluoromethyl)phenyl)-3-(4-(4-amino-7-cyclopropyl-7H-pyrrolo[2,3-d]pyrimidin-5-yl)-2-fluorophenyl)urea] gave an IC50 of less than 150 nM.
CN1CCN(Cc2ccc(NC(=O)Nc3ncc(-c4cn(C5CC5)c5ncnc(N)c45)cc3F)cc2C(F)(F)F)CC1 [Id-66] showed an IC50 of less than 150 nM.
CN1CCN(Cc2ncc(NC(=O)Nc3ccc(-c4cn(C5CC5)c5ncnc(N)c45)cc3F)cc2C(F)(F)F)CC1 [Id-67] was tested, and the IC50 was less than 150 nM.
